Source: article PMC9014857 (ACS Medicinal Chemistry Letters, 2022)

Columns and labels:
[1] = tested on: VEEV TC83; experiment: microbe, parasite or virus in culture; type: cell-based; conditions: Venezuelan equine encephalitis virus, read-out: CPE EC50 (VEEV TC83)
[2] = tested on: EEEV V105; experiment: microbe, parasite or virus in culture; type: cell-based, eastern equine encephalitis virus; conditions: for EC50: Eastern equine encephalitis virus, Vero 76, 48 h, read-out: EEEV V105 CPE EC50
[3] = tested on: VEEV INH9813
[4] = tested on: VEEV INH9813; experiment: microbe, parasite or virus in culture; conditions: Venezuelan equine encephalitis virus, Vero 76, read-out: CPE EC50, VEEV and EEEV
[5] = Mouse plasma stability; conditions: CD-1, mouse

## COc1ccc(N2C(=O)c3cc([N+](=O)[O-])ccc3N=C3C2N(C)CCN3C)cc1 (stereo not shown) [7a]
[1]
  EC50: 41 nM

## COc1ccc(N2C(=O)c3cc([N+](=O)[O-])ccc3N=C3C2N(C)CCN3C)cc1F (stereo not shown) [7b]
[2]
  EC50: 27 ± 3 nM

## CN1CCN(C)C2C1=Nc1ccc([N+](=O)[O-])cc1C(=O)N2c1ccccc1 (stereo not shown) [7e]
[2]
  EC50: 59 ± 10 nM

## COc1ccc(N2C(=O)c3cc(C#N)ccc3N=C3C2N(C)CCN3C)cc1 (stereo not shown) [7l]
[2]
  loss in antiviral activity for EEEV: 75 fold
[3]
  loss in antiviral activity for VEEV: 100 fold

## COc1ccc(N2C(=O)c3cc(C#N)cc(-c4ccc(C)nc4)c3N=C3C2N(C)CCN3C)cc1F (stereo not shown) [7o]
[4]
  EC50: 160 to 240 nM
[5]
  half-life: > 4.82 h
